US20250084039A1, “4-SUBSTITUTED AMINOISOQUINOLINE DERIVATIVES” (Purdue Research Foundation, priority 2016, published 2025)
Where two headings read alike, the source gives them in different places.

Columns and labels:
Type in all cases: cell-based
HCT116 = experiment: Proliferation inhibition at single concentration (CellTiter-Blue); conditions: 1 μM compound
HeLa = experiment: as above; conditions: for Percent inhibition of proliferation HeLa: 1 μM compound
Method: (§1) Plates were then treated with compound diluted in dimethyl sulfoxide (DMSO) as well as a DMSO control the following day for 72 hours. After this time the plates were then treated with 10 μL of CellTiter-Blue Cell Viability Assay (Promega, Madison, WI) for 4 hours. Then the plates were read on a plate reader (Bio-Tek, Winooski, VT). Data was analyzed on Excel as a percent of the DMSO vehicle.
(§2) Antiproliferative activities against AML cell line, MV4-11 (a FLT3-driven cell line) and three other solid tumors (MCF7, breast, HCT116, colon and HeLa) have been investigated (Tables 6A and 6B and FIG. 10).

MCF-7 = experiment: as above; conditions: for Percent inhibition of proliferation MCF-7: 1 μM compound
Method: as §1, §2

MV-4-11 = experiment: as above; conditions: 1 μM compound
K562 = experiment: IC50 proliferation assay (Alamar Blue, 72 h)
Method: IC50 proliferation assay—Cell lines and primary cells were seeded into 96-well plates the afternoon prior to treatment. Approximately 18 hours later, compounds were semi-serially diluted in dimethyl sulfoxide (DMSO) and then growth medium, and added to cells. Plates were incubated for 72 hours prior to addition of Alamar Blue (Life Technologies, Carlsbad, CA). Plates were read after 4 additional hours of incubation at 37° C. using a Bio-Tek Synergy HT plate reader (Bio-Tek, Winooski, VT). Data was analyzed and graphed using GraphPad Prism Software (Graphpad, La Jolla. CA).
IC50 (proliferation inhibition) against leukemia cell lines MV4-11 and K562. […] MiaPaca-2 (Pancreatic cell line), HLY-1 (Lymphoma cell line), MV4-11 (AML, cell line) and K562 (CML cell line).

[1] = Table 18, read-out: Inhibition of proliferation of K562 cell lines (CML)
[2] = Homo sapiens, K562, Table 18, read-out: Inhibition of proliferation of K562 cell lines (CML)

## CCN(CC)CC(O)CNC(=O)c1cccc(C#Cc2c(N)ncc3ccc(Cl)cc23)c1 (stereo not shown) [HSN189]
HCT116
  Percent inhibition of proliferation HCT116: 7%
HeLa
  Percent inhibition of proliferation HeLa: 18%
MCF-7
  Percent inhibition of proliferation MCF-7: 49%
MV-4-11
  Percent inhibition of proliferation MV-4-11: 95%

## Nc1ncc2ccc(Cl)cc2c1C#Cc1cccc(C(=O)NCCc2c[nH]cn2)c1 [HSN157]
HCT116
  Percent inhibition of proliferation HCT116: 12%
HeLa
  Percent inhibition of proliferation HeLa: 33%
MCF-7
  Percent inhibition of proliferation MCF-7: 21%
MV-4-11
  Percent inhibition of proliferation MV-4-11: 96%

## Cc1ccc(C(=O)NCCN2CCCCC2)cc1C#Cc1cnc(N)c2ccccc12 [HSL58]
K562; [1]
  IC50: 94.5 ± 0.1 nM

## Cc1ccc(C(=O)NCCCN2CCCCC2)cc1C#Cc1c(N)ncc2ccc(Cl)cc12 [HSL56]
K562; [1]
  IC50: 95.4 ± 0.23 nM

## CCN(CC)CC(O)CNC(=O)c1ccc(C#Cc2c(N)ncc3ccc(Cl)cc23)cc1 (stereo not shown) [HSN184]
HCT116
  Percent inhibition of proliferation HCT116: 38%
HeLa
  Percent inhibition of proliferation HeLa: 51%
MCF-7
  Percent inhibition of proliferation MCF-7: 92%
MV-4-11
  Percent inhibition of proliferation MV-4-11: 97%

## NCCNC(=O)c1ccc(C#Cc2c(N)ncc3ccc(Cl)cc23)cc1 [HSN204]
HCT116
  Percent inhibition of proliferation HCT116: 21%
HeLa
  Percent inhibition of proliferation HeLa: 22%
MCF-7
  Percent inhibition of proliferation MCF-7: 20%
MV-4-11
  Percent inhibition of proliferation MV-4-11: 77%

## Cc1ccc(C(=O)NCCN2CCN(C)CC2)cc1C#Cc1c(N)ncc2ccc(Cl)cc12 [HSL47]
K562; [1]
  IC50: 161.1 ± 0.11 nM

## Nc1ncc2ccc(Cl)cc2c1C#Cc1cccc(C(=O)NCC(O)CN2CCCC2)c1 (stereo not shown) [HSM1751]
HCT116
  Percent inhibition of proliferation HCT116: 32%
HeLa
  Percent inhibition of proliferation HeLa: 23%
MCF-7
  Percent inhibition of proliferation MCF-7: 47%
MV-4-11
  Percent inhibition of proliferation MV-4-11: 91%

## Nc1ncc2ccc(Cl)cc2c1C#Cc1ccc(C(=O)NCC(O)CN2CCCC2)cc1 (stereo not shown) [HSM1750]
HCT116
  Percent inhibition of proliferation HCT116: 20%
HeLa
  Percent inhibition of proliferation HeLa: 11%
MCF-7
  Percent inhibition of proliferation MCF-7: 17%
MV-4-11
  Percent inhibition of proliferation MV-4-11: 93%

## CCN(CC)CC(O)CNC(=O)c1ccc(C)c(C#Cc2c(N)ncc3ccc(Cl)cc23)c1 (stereo not shown) [HSN185]
HCT116
  Percent inhibition of proliferation HCT116: 67%
HeLa
  Percent inhibition of proliferation HeLa: 99%
MCF-7
  Percent inhibition of proliferation MCF-7: 100%
MV-4-11
  Percent inhibition of proliferation MV-4-11: 97%

## Nc1ncc2ccc(Cl)cc2c1C#Cc1ccc(C(=O)N2CCC3(CCNCC3)CC2)cc1 [HSM1773]
HCT116
  Percent inhibition of proliferation HCT116: 24%
HeLa
  Percent inhibition of proliferation HeLa: 24%
MCF-7
  Percent inhibition of proliferation MCF-7: 43%
MV-4-11
  Percent inhibition of proliferation MV-4-11: 93%

## Nc1ncc2ccc(Cl)cc2c1C#Cc1ccc(C(=O)NCCc2c[nH]cn2)cc1 [HSN145]
HCT116
  Percent inhibition of proliferation HCT116: 35%
HeLa
  Percent inhibition of proliferation HeLa: 11%
MCF-7
  Percent inhibition of proliferation MCF-7: 6%
MV-4-11
  Percent inhibition of proliferation MV-4-11: 99%

## Cc1ccc(C(=O)Nc2ccc(CN3CCN(C)CC3)c(C(F)(F)F)c2)cc1C#Cc1c(N)nc(C)c2ccccc12 [HSN375, 3-((3-amino-1-methylisoquinolin-4-yl)ethynyl)-4-methyl-N-(4-((4-methylpiperazin-1-yl)methyl)-3-(trifluoromethyl)phenyl)benzamide]
K562; [2]
  IC50: 8.8 ± 0.4 nM

## Cc1ccc(C(=O)NCCN2CCCCC2)cc1C#Cc1cnc2cccnn12 [HSL44]
K562; [1]
  IC50: 43.5 ± 0.14 nM

## Cc1ccc(C(=O)NCCN2CCOCC2)cc1C#Cc1c(N)ncc2ccc(Cl)cc12 [HSL43]
K562; [1]
  IC50: 10.1 ± 0.1 nM

## CN(C)CC(O)CNC(=O)c1cccc(C#Cc2c(N)ncc3ccc(Cl)cc23)c1 (stereo not shown) [HSN161]
HCT116
  Percent inhibition of proliferation HCT116: 18%
HeLa
  Percent inhibition of proliferation HeLa: 70%
MCF-7
  Percent inhibition of proliferation MCF-7: 91%
MV-4-11
  Percent inhibition of proliferation MV-4-11: 97%

## Cc1ccc(C(=O)NCCN2CCCCC2)cc1C#Cc1cnc(N)c2ncccc12 [HSL45]
K562; [1]
  IC50: 25.3 ± 0.1 nM

## COc1cc2nc(N)nc(C#Cc3cc(C(=O)NCc4ccc(OCCN(C)C)cc4)ccc3C)c2cc1OC [HSN317, 3-((2-amino-6,7-dimethoxyquinazolin-4-yl)ethynyl)-N-(4-(2-(dimethylamino)ethoxy)benzyl)-4-methylbenzamide]
K562; Homo sapiens, K562, 72 h, read-out: IC50 (proliferation inhibition) Cell line - K562
  IC50: 1480 nM
K562; [2]
  IC50: 1483 ± 0.1 nM

## Nc1ncc2ccc(Cl)cc2c1C#Cc1ccc(C2=NC(C3CC3)CN2)cc1 (stereo not shown) [Compound 1703]
HeLa; FIG. 3
  activity against HeLa in words: potent
MCF-7; FIG. 2
  activity against MCF-7 in words: potent

## Nc1ncc2ccc(Cl)cc2c1C#Cc1ccc(C(=O)NCCCN2CCOCC2)cc1 [HSM1610]
HCT116
  Percent inhibition of proliferation HCT116: 39%
HeLa
  Percent inhibition of proliferation HeLa: 20%
MCF-7
  Percent inhibition of proliferation MCF-7: 29%
MV-4-11
  Percent inhibition of proliferation MV-4-11: 90%

## CN(C)CCOc1ccc(CNC(=O)c2ccc(C#Cc3c(N)ncc4ccc(Cl)cc34)cc2)cc1 [HSN99]
HCT116
  Percent inhibition of proliferation HCT116: 20%
HeLa
  Percent inhibition of proliferation HeLa: 6%
MCF-7
  Percent inhibition of proliferation MCF-7: 42%
MV-4-11
  Percent inhibition of proliferation MV-4-11: 97%

## Cc1ccc(C(=O)Nc2ccc(CN3CCN(C)CC3)c(C(F)(F)F)c2)cc1C#Cc1c(N)ncc2cc(Cl)c(Cl)cc12 [HSN393, 3-((3-amino-6,7-dichloroisoquinolin-4-yl)ethynyl)-4-methyl-N-(4-((4-methylpiperazin-1-yl)methyl)-3-(trifluoromethyl)phenyl)benzamide]
K562; [2]
  IC50: 7.3 ± 0.04 nM

## Cc1ccc(C(=O)NCCN2CCCC2)cc1C#Cc1c(N)ncc2ccc(Cl)cc12 [HSL41]
K562; [1]
  IC50: 30.1 ± 0.19 nM

## NCC(O)CNC(=O)c1ccc(C#Cc2c(N)ncc3ccc(Cl)cc23)cc1 (stereo not shown) [HSN177]
HCT116
  Percent inhibition of proliferation HCT116: 15%
HeLa
  Percent inhibition of proliferation HeLa: 1%
MCF-7
  Percent inhibition of proliferation MCF-7: 46%
MV-4-11
  Percent inhibition of proliferation MV-4-11: 91%

## CC(C)(C)OC(=O)NC1CCN(C(=O)c2ccc(C#Cc3c(N)ncc4ccc(Cl)cc34)cc2)CC1 [HSN139]
HCT116
  Percent inhibition of proliferation HCT116: 32%
HeLa
  Percent inhibition of proliferation HeLa: 35%
MCF-7
  Percent inhibition of proliferation MCF-7: 60%
MV-4-11
  Percent inhibition of proliferation MV-4-11: 95%

## Nc1ncc2ccc(Cl)cc2c1C#Cc1cccc(C(=O)N2CCC(N)CC2)c1.O=C(O)C(F)(F)F [HSN174]
HCT116
  Percent inhibition of proliferation HCT116: 28%
HeLa
  Percent inhibition of proliferation HeLa: 10%
MCF-7
  Percent inhibition of proliferation MCF-7: 40%
MV-4-11
  Percent inhibition of proliferation MV-4-11: 85%
